28 molecules from US9617286B2, “Fungicide N-[(trisubstitutedsilyl)methyl]-carboxamide derivatives” (BAYER INTELLECTUAL PROPERTY GMBH, priority 2011, dated 2017) can be followed below.

For one data set, the system named is Alternaria solani. Nature of the data set: In vivo preventive test on Alternaria solani (tomato). Conditions: preventive spray, 500 ppm of active ingredient, evaluated 7 days after inoculation. The method, then:
Solvent: 49 parts by weight of N,N-dimethylformamide Emulsifier: 1 part by weight of alkylaryl polyglycol ether To produce a suitable preparation of active compound, 1 part by weight of active compound is mixed with the stated amounts of solvent and emulsifier, and the concentrate is diluted with water to the desired concentration. To test for preventive activity, young plants are sprayed with the preparation of active compound at the stated rate of application. One day after this treatment, the plants are inoculated with an aqueous spore suspension of Alternaria solani. The plants remain for one day in an incubation cabinet at approximately 22° C. and a relative atmospheric humidity of 100%. Then the plants are placed in an incubation cabinet at approximately 20° C. and a relative atmospheric humidity of 96%.

Data set [1] can be described thus: log P by HPLC on reversed-phase column (C 18), EEC Directive 79/831 Annex V.A8. Type of data set: physicochemical. The settings on record: 40° C., 0.1% aqueous formic acid and acetonitrile, linear gradient 10% to 90% acetonitrile. The method, then: In table 1, the log P values were determined in accordance with EEC Directive 79/831 Annex V.A8 by HPLC (High Performance Liquid Chromatography) on a reversed-phase column (C 18), using the method described below:
Temperature: 40° C.; Mobile phases: 0.1% aqueous formic acid and acetonitrile; linear gradient from 10% acetonitrile to 90% acetonitrile.
Calibration was carried out using unbranched alkan-2-ones (comprising 3 to 16 carbon atoms) with known log P values (determination of the log P values by the retention times using linear interpolation between two successive alkanones). lambda-max-values were determined using UV-spectra from 200 nm to 400 nm and the peak values of the chromatographic signals.

A further data set relates to Pyrenophora teres. The data set is described as follows: In vivo preventive test on Pyrenophora teres (barley). Conditions: preventive spray (DMF/alkylaryl polyglycol ether), 500 ppm of active ingredient, evaluated 7-9 days after inoculation. How it is done: Solvent: 49 parts by weight of N,N-dimethylformamide Emulsifier: 1 part by weight of alkylaryl polyglycol ether To produce a suitable preparation of active compound, 1 part by weight of active compound is mixed with the stated amounts of solvent and emulsifier, and the concentrate is diluted with water to the desired concentration. To test for preventive activity, young plants are sprayed with the preparation of active compound at the stated rate of application. One day after this treatment, the plants are inoculated with an aqueous spore suspension of Pyrenophora teres. The plants remain for 48 hours in an incubation cabinet at 22° C. and a relative atmospheric humidity of 100%. Then the plants are placed in a greenhouse at a temperature of approximately 20° C. and a relative atmospheric humidity of approximately 80%.

The next data set has as its system Puccinia recondita. The data set is described as follows: In vivo preventive test on Puccinia recondita (brown rust on wheat). The settings on record: preventive spray, 500 ppm of active ingredient, grading 12 days after contamination. The method, then: Wheat plants (“Scipion” variety), sown in starter cups on a 50/50 peat soil pozzolana substrate and grown at 22° C., are treated at the 1 leaf stage (10 cm height) by spraying with the active ingredient prepared as described above. Plants, used as controls, are treated with the mixture of acetone/tween/DMSO/water not containing the active material. After 24 hours, the plants are contaminated by spraying the leaves with an aqueous suspension of Puccinia recondita spores (100 000 spores per mL). The spores are collected from an infected plant and are suspended in water containing 2.5 mL/L of Tween 80 at 10%. The contaminated wheat plants are incubated for 24 hours at 20° C. and at 100% relative humidity, and then for 10 days at 20° C. and at 70-80% relative humidity. Grading (% of efficacy) is carried out 12 days after the contamination, in comparison with the control plants.

The next data set concerns Septoria tritici. The data set is described as follows: In vivo preventive test on Septoria tritici (wheat). Conditions: preventive spray, 500 ppm of active ingredient, grading 24 days after contamination. How it is done:
Wheat plants (“Scipion” variety), sown in starter cups on a 50/50 peat soil pozzolana substrate and grown at 22° C., are treated at the 1 leaf stage (10 cm height) by spraying with the active ingredient prepared as described above. Plants, used as controls, are treated with the mixture of acetone/tween/DMSO/water not containing the active material. After 24 hours, the plants are contaminated by spraying the leaves with an aqueous suspension of cryopreserved Septoria tritici spores (500 000 spores per mL). The contaminated wheat plants are incubated for 72 hours at 18° C. and at 100% relative humidity, and then for 21 days at 90% relative humidity. Grading (% of efficacy) is carried out 24 days after the contamination, in comparison with the control plants.

The next data set relates to Sphaerotheca fuliginea. The data set is described as follows: In vivo preventive test on Sphaerotheca fuliginea (powdery mildew on cucurbits). The settings on record: gherkin plants, preventive spray, 500 ppm of active ingredient, grading 12 days after contamination. How it is done:
Gherkin plants (“Vert petit de Paris” variety), sown in starter cups on a 50/50 peat soil-pozzolana substrate and grown at 24° C., are treated at the Z11 cotyledon stage by spraying with the active ingredient prepared as described above. Plants, used as controls, are treated with the mixture of acetone/tween/DMSO/water not containing the active material. After 24 hours, the plants are contaminated by spraying the cotyledons with an aqueous suspension of Sphaerotheca fuliginea spores (100 000 spores per mL). The spores are collected from infected plants. The contaminated gherkin plants are incubated at about 20° C. and at 70-80% relative humidity. Grading (% of efficacy) is carried out 12 days after the contamination, in comparison with the control plants.

Another data set deals with Alternaria brassicae. The data set is described as follows: In vivo preventive test on Alternaria brassicae (leaf spot on radish). Conditions: preventive spray, 500 ppm of active ingredient, grading 6 days after contamination. How it is done: Radish plants (“Pernod Clair” variety), sown in starter cups on a 50/50 peat soil pozzolana substrate and grown at 17° C., are treated at the cotyledon stage by spraying with the active ingredient prepared as described above. Plants, used as controls, are treated with the mixture of acetone/tween/DMSO/water not containing the active material. After 24 hours, the plants are contaminated by spraying the cotyledons with an aqueous suspension of Alternaria brassicae spores (50 000 spores per mL). The spores are collected from a 15-day-old culture. The contaminated radish plants are incubated at 20° C. and at 100% relative humidity. Grading (% of efficacy) is carried out 6 days after the contamination, in comparison with the control plants.

The logP is the decadic logarithm of the partition coefficient of the neutral form, usually between octanol and water. Take `C[Si](C)(CN(C(=O)c1cccnc1C(F)F)C1CC1)c1ccccc1Cl` [Example 28]: the results for the Efficacy in the data set with Alternaria solani and in the data set on Pyrenophora teres were 89% and 100%, respectively. For the same molecule, the logP in data set [1] came to 3.83.
In data set [1], `CCc1ccccc1[Si](C)(C)CN(C(=O)c1nccnc1C(F)(F)F)C1CC1` [Example 21] came in with a logP of 4.77. In addition, the Efficacy is listed as 100% in the data set with Pyrenophora teres, 75% with Puccinia recondita, 86% with Septoria tritici and 98% with Sphaerotheca fuliginea.
As for `C[Si](C)(CNC(=O)c1cccnc1C(F)F)c1cccc(Cl)c1` [Example 29], the Efficacy in the data set with Alternaria solani and with Pyrenophora teres was 95% each time. The same molecule showed a logP in data set [1] of 3.15.
`C[Si](C)(Cc1cccc(Cl)c1)CN(C(=O)c1cccnc1C(F)F)C1CC1` [Example 104]: the Efficacy in the data set on Alternaria solani came out at 90%; with Pyrenophora teres it was 80%. In data set [1], this molecule gave a logP of 4.16.
`C[Si](C)(CNC(=O)c1cccnc1C(F)F)c1cc(Cl)cc(Cl)c1` [Example 63]: the Efficacy came out at 95% with Alternaria solani; 95% in the data set on Pyrenophora teres; 97% in the data set with Puccinia recondita; 96% in the data set on Septoria tritici; 71% in the data set on Sphaerotheca fuliginea. The logP in data set [1] amounted to 3.69.
As for `C[Si](C)(CN(C(=O)c1cccnc1C(F)(F)F)C1CC1)c1ccsc1` [Example 91], the Efficacy in the data set with Alternaria solani is on record as 78%; with Pyrenophora teres, 70%. The logP in data set [1] worked out at 3.72.
`C[Si](C)(CN(C(=O)c1cccnc1C(F)(F)F)C1CC1)c1ccccc1` [Example 8] showed a logP in data set [1] of 3.89. The results for the Efficacy with Pyrenophora teres, in the data set with Alternaria brassicae and in the data set on Septoria tritici were 100%, 88% and 100%, respectively.
`C[Si](C)(CNC(=O)c1cccnc1Cl)c1ccccc1` [Example 3]: the logP in data set [1] was 2.61. Further, the Efficacy in the data set on Puccinia recondita is on record as 75%; with Septoria tritici it was 90%.
In data set [1], `C[Si](C)(CN(C(=O)c1cccnc1C(F)F)C1CC1)c1ccccc1F` [Example 16] came in with a logP of 3.51. The Efficacy in the data set on Pyrenophora teres is recorded as 100%; in the data set on Alternaria brassicae, 95%; in the data set on Septoria tritici, 71%.
Take `C[Si](C)(CN(C(=O)c1nccnc1C(F)(F)F)C1CC1)c1ccccc1` [Example 9]: in data set [1], the logP was 4.13. Moreover, the results for the Efficacy with Pyrenophora teres and with Septoria tritici were 100% and 86%, respectively.
For `Cc1ccccc1[Si](C)(C)CN(C(=O)c1cccnc1Cl)C1CC1` [Example 13], in that order: 3.80, 100% and 97%.
With `C[Si](C)(CNC(=O)c1nccnc1C(F)(F)F)c1ccccc1Cl` [Example 41], in data set [1], the logP was 3.50. Further, the results for the Efficacy in the data set with Septoria tritici and in the data set with Sphaerotheca fuliginea were 90% and 78%, respectively.
On to `C[Si](C)(CN(C(=O)c1cccnc1C(F)F)C1CC1)c1cc(Cl)cc(Cl)c1` [Example 68], for which the logP in data set [1] amounted to 4.49. This molecule returned an Efficacy in the data set on Pyrenophora teres of 80%.
Turning to `C[Si](C)(CN(C(=O)c1cccnc1C(F)(F)F)C1CC1)c1ccc2ccccc2c1` [Example 78], the logP in data set [1] was determined as 4.56. Also, the Efficacy in the data set on Pyrenophora teres stood at 95%.
For `C[Si](C)(CN(C(=O)c1cccnc1Cl)C1CC1)c1ccccc1F` [Example 17], the logP in data set [1] came out at 3.58. In addition, the Efficacy came to 86% in the data set on Pyrenophora teres and 79% in the data set with Septoria tritici.
In data set [1], `C[Si](C)(CN(C(=O)c1cccnc1C(F)F)C1CC1)c1cc(F)ccc1Cl` [Example 51] had a logP of 3.89. Also, the Efficacy in the data set with Pyrenophora teres turned out to be 97%; with Puccinia recondita it was 88%; with Septoria tritici, 100%.
For `C[Si](C)(CN(C(=O)c1cccnc1C(F)F)C1CC1)c1ccsc1` [Example 87], the Efficacy with Alternaria solani is given as 88%; with Pyrenophora teres, 100%. The logP in data set [1] was found to be 3.27.
In the case of `C[Si](C)(CNC(=O)c1cccnc1C(F)(F)F)c1ccccc1Cl` [Example 39], the logP in data set [1] is 3.25. The Efficacy in the data set on Septoria tritici was determined as 96%.
For `C[Si](C)(Cc1cc(Cl)cc(Cl)c1)CN(C(=O)c1cccnc1C(F)F)C1CC1` [Example 117], the Efficacy came to 75% in the data set on Alternaria solani and 90% in the data set on Pyrenophora teres. In data set [1], this molecule registered a logP of 4.77.
Regarding `C[Si](C)(CNC(=O)c1cccnc1Cl)c1ccccc1Cl` [Example 40], in data set [1], the logP stood at 2.94. For the same molecule, in the data set with Septoria tritici, the Efficacy was found to be 96%.
Regarding `C[Si](C)(CN(C(=O)c1cccnc1C(F)(F)F)C1CC1)c1ccccc1F` [Example 15], in data set [1], the logP was determined as 3.96. The Efficacy was 100% in the data set on Pyrenophora teres, 75% with Puccinia recondita, 71% in the data set with Septoria tritici and 72% in the data set with Sphaerotheca fuliginea.
`Cc1ccccc1[Si](C)(C)CN(C(=O)c1cccnc1C(F)F)C1CC1` [Example 12] registered a logP in data set [1] of 3.73. Besides, the Efficacy with Pyrenophora teres is listed as 97%; in the data set on Alternaria brassicae it was 88%; in the data set with Septoria tritici it was 79%.
As for `CC[Si](C)(CN(C(=O)c1cccnc1Cl)C1CC1)c1ccccc1Cl` (stereo not drawn) [Example 38], the logP in data set [1] stood at 4.34. The molecule also showed an Efficacy with Septoria tritici of 80%.
`C[Si](C)(CN(C(=O)c1nccnc1C(F)(F)F)C1CC1)c1ccccc1C(F)(F)F` [Example 54] returned a logP in data set [1] of 4.61. For the same molecule, the Efficacy is listed as 100% with Pyrenophora teres, 93% in the data set with Septoria tritici and 83% in the data set on Sphaerotheca fuliginea.
For the molecule `C[Si](C)(CNC(=O)c1nccnc1C(F)(F)F)c1ccccc1` [Example 7], in data set [1], the logP was 3.15. Moreover, the Efficacy is 100% in the data set with Pyrenophora teres and 93% in the data set with Septoria tritici.
With `C[Si](C)(CN(C(=O)c1nccnc1C(F)(F)F)C1CC1)c1ccc(Cl)cc1Cl` [Example 58], the lipophilicity (logP) in data set [1] was 5.25. This molecule returned an Efficacy in the data set on Pyrenophora teres of 100%.
`C[Si](C)(Cc1ccc(Cl)cc1Cl)CN(C(=O)c1cccnc1C(F)F)C1CC1` [Example 110]: the Efficacy in the data set with Alternaria solani turned out to be 70%; with Pyrenophora teres, 95%. This molecule also gave a logP in data set [1] of 4.74.
`C[Si](C)(CN(C(=O)c1cccnc1C(F)(F)F)C1CC1)c1ccccc1C(F)(F)F` [Example 55] yielded a logP in data set [1] of 4.39. Also, the Efficacy in the data set on Pyrenophora teres is on record as 97%; with Septoria tritici, 64%.
